Source: patent US12264127B1, “8-((3-formyl-4-hydroxyphenyl)diazenyl)naphthalene-1,3-disulfonic acid as an antioxidant compound” (KING FAISAL UNIVERSITY, priority 2023, dated 2025)

Experiment: DPPH radical scavenging antioxidant test
Type: biochemical
Details: 517 nm; for Inhibition (radical scavenging inhibition): 0.2 mL DPPH (0.75 mM), compound 3 μM in ethanol, 30 min incubation in the dark
Experimental: The antioxidant properties of the 8-((3-formyl-4-hydroxyphenyl)diazenyl)naphthalene-1,3-disulfonic acid were studied by adding 0.2 mL DPPH (0.75 mM)) to compound 8-((3-formyl-4-hydroxyphenyl)diazenyl)naphthalene-1,3-disulfonic acid (III) (3 μM) in ethanol. After 30 min of incubation in the dark, the absorbance was read against a blank at 517 nm. Ascorbic acid (vitamin C) was used as standard antioxidants (positive control). A blank sample was prepared by 0.2 ml of DPPH in 3 ml ethanol. A negative control sample was run using ethanol instead of the sample. The radical scavenging inhibition was calculated using the following equation: […]
The antioxidant activity for the synthesized compound is listed in Table 1, using Vitamin C as a reference.

Compound | Inhibition (radical scavenging inhibition) | antioxidant potential compared to vitamin C (in words) (DPPH in vitro test, vitamin C as positive control)
O=C1O[C@H]([C@@H](O)CO)C(O)=C1O [vit c, Ascorbic acid, reference compound] | 74% | –
O=Cc1cc(N=Nc2cccc3cc(S(=O)(=O)O)cc(S(=O)(=O)O)c23)ccc1O [Product III, 8-((3-formyl-4-hydroxyphenyl)diazenyl)naphthalene-1,3-disulfonic acid] | 54% | high potential as an antioxidant compared to vitamin C
